The experiment addresses T1, GLP-1R (Homo sapiens, UniProt P43220).
T1 construct: host or cells: CHO cells
In words: GLP-1R activation cAMP assay (Assay 1 or Assay 2). It counts as cell-based. Particulars: cAMP increase in CHO cells stably expressing GLP-1R; compounds run on one of the two cAMP assays. A digest of the protocol: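 CHO cells stably expressing human GLP-1R were incubated 1 h in HBSS/20 mM HEPES/0.1% BSA, then exposed to 10-point agonist dilutions for 30 min at 37 °C. cAMP increase was measured with an HTRF Gs dynamic kit; EC50 from sigmoidal fit of response versus log concentration.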
Background: Changes in cAMP serve as a functional read-out for many G protein-coupled receptors.
T1 sequence (P43220 24-463): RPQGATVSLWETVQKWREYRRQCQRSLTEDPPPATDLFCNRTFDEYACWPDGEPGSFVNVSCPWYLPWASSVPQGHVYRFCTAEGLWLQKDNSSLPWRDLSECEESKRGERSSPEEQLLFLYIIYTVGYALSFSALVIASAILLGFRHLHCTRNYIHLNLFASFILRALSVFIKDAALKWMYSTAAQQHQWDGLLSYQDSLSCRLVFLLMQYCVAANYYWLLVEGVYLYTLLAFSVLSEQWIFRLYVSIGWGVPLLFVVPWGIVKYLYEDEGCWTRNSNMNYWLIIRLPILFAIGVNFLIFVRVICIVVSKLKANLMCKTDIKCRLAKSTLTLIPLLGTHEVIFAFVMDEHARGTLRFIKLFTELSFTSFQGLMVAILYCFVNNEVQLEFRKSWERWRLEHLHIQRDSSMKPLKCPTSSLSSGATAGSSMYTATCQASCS
One may read the EC50 as the concentration that produces a half-maximal response. Low values mean a more potent agent, high ones a less potent agent. As to `O=C(O)c1ccc2nc(Cc3cc(F)c(-c4cccc(OCc5cnc(Cl)s5)n4)cc3F)n(C[C@@H]3CCO3)c2c1` [Example 20, (S)-2-(4-(6-((2-chlorothiazol-5-yl)methoxy)pyridin-2-yl)-2,5-difluorobenzyl)-1-(oxetan-2-ylmethyl)-1H-benzo[d]imidazole-6-carboxylic acid], the EC50 stood at 0.33 nM.
As to `COc1nc(C#Cc2cnn(C)c2)ccc1COc1cccc(-c2cc(F)c(Cc3nc4ccc(C(=O)O)cc4n3C[C@@H]3CCO3)cc2F)n1` [Example 360, (S)-2-(2,5-difluoro-4-(6-((2-methoxy-6-((1-methyl-1H-pyrazol-4-yl)ethynyl)pyridin-3-yl)methoxy)pyridin-2-yl)benzyl)-1-(oxetan-2-ylmethyl)-1H-benzo[d]imidazole-6-carboxylic acid], the concentration giving a half-maximal response (EC50) was 0.174 nM. This EC50 lies about 1.9-fold lower than the previous one.
`Cn1nc(COc2cccc(-c3cc(F)c(Cc4nc5ccc(C(=O)O)cc5n4C[C@@H]4CCO4)cc3F)n2)cc1CC#N` [Example 37, (S)-2-(4-(6-((5-(cyanomethyl)-1-methyl-1H-pyrazol-3-yl)methoxy)pyridin-2-yl)-2,5-difluorobenzyl)-1-(oxetan-2-ylmethyl)-1H-benzo[d]imidazole-6-carboxylic acid] returned a half-maximal effective concentration (EC50) of 8.46 nM.
Consider `COc1cc(C(=O)NC2(C#N)CC2)ncc1COc1cccc(-c2cc(F)c(Cc3nc4c(F)cc(C(=O)O)cc4n3C[C@@H]3CCO3)cc2F)n1` [Example 42, (S)-2-(4-(6-((6-((1-cyanocyclopropyl)carbamoyl)-4-methoxypyridin-3-yl)methoxy)pyridin-2-yl)-2,5-difluorobenzyl)-4-fluoro-1-(oxetan-2-ylmethyl)-1H-benzo[d]imidazole-6-carboxylic acid], for which the midpoint of the response, the EC50, lay at 0.07 nM.
As to `O=C(O)c1ccc2nc(Cc3cc(F)c(-c4cccc(OCc5ccc(C#Cc6ccncc6)cc5F)n4)cc3F)n(C[C@@H]3CCO3)c2c1` [Example 140, (S)-2-(2,5-difluoro-4-(6-((2-fluoro-4-(pyridin-4-ylethynyl)benzyl)oxy)pyridin-2-yl)benzyl)-1-(oxetan-2-ylmethyl)-1H-benzo[d]imidazole-6-carboxylic acid], the concentration giving a half-maximal response (EC50) was 0.4 nM.
The compound `Cc1nc(C)c(COc2cccc(-c3cc(F)c(Cc4nc5ccc(C(=O)O)cc5n4C[C@@H]4CCO4)cc3F)n2)s1` [Example 354, (S)-2-(4-(6-((2,4-dimethylthiazol-5-yl)methoxy)pyridin-2-yl)-2,5-difluorobenzyl)-1-(oxetan-2-ylmethyl)-1H-benzo[d]imidazole-6-carboxylic acid] showed an EC50 of 0.622 nM.
`COc1nnc(COc2cccc(-c3cc(Cl)c(Cc4nc5ccc(C(=O)O)cc5n4[C@@H]4COCC4(C)C)cc3C)n2)s1` [Example 442, (S)-2-(2-chloro-4-(6-((5-methoxy-1,3,4-thiadiazol-2-yl)methoxy)pyridin-2-yl)-5-methylbenzyl)-1-(4,4-dimethyltetrahydrofuran-3-yl)-1H-benzo[d]imidazole-6-carboxylic acid] had an EC50 of 0.669 nM.
In turn, `CCn1cc(Cl)c(COc2cccc(-c3cc(F)c(Cc4nc5ccc(C(=O)O)cc5n4C[C@@H]4CCO4)cc3F)n2)n1` [Example 76, (S)-2-(4-(6-((4-chloro-1-ethyl-1H-pyrazol-3-yl)methoxy)pyridin-2-yl)-2,5-difluorobenzyl)-1-(oxetan-2-ylmethyl)-1H-benzo[d]imidazole-6-carboxylic acid] returned a half-maximal effective concentration (EC50) of 4.23 nM.
`Cn1cc(-c2cnc(COc3cccc(-c4cc(F)c(Cc5nc6ccc(C(=O)O)cc6n5C[C@@H]5CCO5)cc4F)n3)s2)cn1` [Example 79, 2-[[2,5-difluoro-4-[6-[[5-(1-methylpyrazol-4-yl)thiazol-2-yl]methoxy]-2-pyridyl]phenyl]methyl]-3-[[(2S)-oxetan-2-yl]methyl]benzimidazole-5-carboxylic acid]: the EC50 was found to be 0.06 nM.
`O=C(O)c1ccc2nc(Cc3cc(F)c(-c4cccc(OCc5nncs5)n4)cc3F)n(C[C@@H]3CCO3)c2c1` [Example 59, (S)-2-(4-(6-((1,3,4-thiadiazol-2-yl)methoxy)pyridin-2-yl)-2,5-difluorobenzyl)-1-(oxetan-2-ylmethyl)-1H-benzo[d]imidazole-6-carboxylic acid]: the response was half-maximal at 2.38 nM (EC50).
For the compound `CCc1nnc(COc2cccc(-c3cc(F)c(Cc4nc5ccc(C(=O)O)cc5n4C[C@@H]4CCO4)cc3F)n2)s1` [Example 299, (S)-2-(4-(6-((5-ethyl-1,3,4-thiadiazol-2-yl)methoxy)pyridin-2-yl)-2,5-difluorobenzyl)-1-(oxetan-2-ylmethyl)-1H-benzo[d]imidazole-6-carboxylic acid], the EC50 is 2.63 nM.
Regarding `Cn1cc(C#Cc2ccc(COc3cccc(-c4cc(F)c(Cc5nc6ccc(C(=O)O)cc6n5C[C@@H]5CCO5)cc4F)n3)c(F)c2)nn1` [Example 301, (S)-2-(2,5-difluoro-4-(6-((2-fluoro-4-((1-methyl-1H-1,2,3-triazol-4-yl)ethynyl)benzyl)oxy)pyridin-2-yl)benzyl)-1-(oxetan-2-ylmethyl)-1H-benzo[d]imidazole-6-carboxylic acid], the EC50 came out at 0.341 nM.
In turn, `COCc1noc(COc2cccc(-c3cc(F)c(Cc4nc5ccc(C(=O)O)cc5n4C[C@@H]4CCO4)cc3F)n2)n1` [Example 16, (S)-2-(2,5-difluoro-4-(6-((3-(methoxymethyl)-1,2,4-oxadiazol-5-yl)methoxy)pyridin-2-yl)benzyl)-1-(oxetan-2-ylmethyl)-1H-benzo[d]imidazole-6-carboxylic acid] yielded a 50% effective concentration (EC50) of 8.86 nM.
Next, `CCOc1nnc(COc2cccc(-c3cc(F)c(Cc4nc5ccc(C(=O)O)cc5n4[C@@H]4COCC4(C)C)cc3F)n2)s1` [Example 430, (S)-1-(4,4-dimethyltetrahydrofuran-3-yl)-2-(4-(6-((5-ethoxy-1,3,4-thiadiazol-2-yl)methoxy)pyridin-2-yl)-2,5-difluorobenzyl)-1H-benzo[d]imidazole-6-carboxylic acid]: 0.039 nM; `O=C(O)c1ccc2nc(Cc3cc(F)c(-c4cccc(OCc5cnc(-c6cnn(C7COC7)c6)cc5F)n4)cc3F)n(C[C@@H]3CCO3)c2c1` [Example 162, (S)-2-(2,5-difluoro-4-(6-((4-fluoro-6-(1-(oxetan-3-yl)-1H-pyrazol-4-yl)pyridin-3-yl)methoxy)pyridin-2-yl)benzyl)-1-(oxetan-2-ylmethyl)-1H-benzo[d]imidazole-6-carboxylic acid]: 0.16 nM; `O=C(O)c1ccc2nc(Cc3cc(F)c(-c4cccc(OCc5nc6c(s5)CCC6)n4)cc3F)n(C[C@@H]3CCO3)c2c1` [Example 332, (S)-2-(4-(6-((5,6-dihydro-4H-cyclopenta[d]thiazol-2-yl)methoxy)pyridin-2-yl)-2,5-difluorobenzyl)-1-(oxetan-2-ylmethyl)-1H-benzo[d]imidazole-6-carboxylic acid]: 0.109 nM.
On to `CC1(C)COC[C@H]1n1c(Cc2cc(F)c(-c3cccc(OCc4ncc(C(F)(F)F)s4)n3)cc2F)nc2ccc(C(=O)O)cc21` [Example 414, (S)-2-(2,5-difluoro-4-(6-((5-(trifluoromethyl)thiazol-2-yl)methoxy)pyridin-2-yl)benzyl)-1-(4,4-dimethyltetrahydrofuran-3-yl)-1H-benzo[d]imidazole-6-carboxylic acid], for which the EC50 was determined as 0.318 nM.
Take `O=C(O)c1ccc2nc(Cc3c(F)cc(-c4cccc(OCc5ncc(C(F)(F)F)s5)n4)c(F)c3F)n(C[C@@H]3CCO3)c2c1` [Example 448, (S)-1-(oxetan-2-ylmethyl)-2-(2,3,6-trifluoro-4-(6-((5-(trifluoromethyl)thiazol-2-yl)methoxy)pyridin-2-yl)benzyl)-1H-benzo[d]imidazole-6-carboxylic acid]: a half-maximal effect (EC50) was put at 0.118 nM.
In the case of `CCOc1nnc(COc2nc(-c3cc(F)c(Cc4nc5c(F)cc(C(=O)O)cc5n4[C@@H]4COCC4(C)C)cc3C)ccc2F)s1` [Example 422, (S)-1-(4,4-dimethyltetrahydrofuran-3-yl)-2-(4-(6-((5-ethoxy-1,3,4-thiadiazol-2-yl)methoxy)-5-fluoropyridin-2-yl)-2-fluoro-5-methylbenzyl)-4-fluoro-1H-benzo[d]imidazole-6-carboxylic acid] it was 0.066 nM; in that of `Cn1cncc1C#Cc1ccc(COc2cccc(-c3cc(F)c(Cc4nc5ccc(C(=O)O)cc5n4C[C@@H]4CCO4)cc3F)n2)c(F)c1` [Example 142, (S)-2-(2,5-difluoro-4-(6-((2-fluoro-4-((1-methyl-1H-imidazol-5-yl)ethynyl)benzyl)oxy)pyridin-2-yl)benzyl)-1-(oxetan-2-ylmethyl)-1H-benzo[d]imidazole-6-carboxylic acid], 0.25 nM.
Next, `O=C(O)c1cc(F)c2nc(Cc3cc(F)c(-c4ccc(F)c(OCc5ncc(C(F)(F)F)s5)n4)cc3F)n(C[C@@H]3CCO3)c2c1` [Example 313, (S)-2-(2,5-difluoro-4-(5-fluoro-6-((5-(trifluoromethyl)thiazol-2-yl)methoxy)pyridin-2-yl)benzyl)-4-fluoro-1-(oxetan-2-ylmethyl)-1H-benzo[d]imidazole-6-carboxylic acid]: 0.032 nM; `O=C(O)c1ccc2nc(Cc3cc(F)c(-c4cccc(OCc5ccn(-c6ccncc6)n5)n4)cc3F)n(C[C@@H]3CCO3)c2c1` [Example 125, (S)-2-(2,5-difluoro-4-(6-((1-(pyridin-4-yl)-1H-pyrazol-3-yl)methoxy)pyridin-2-yl)benzyl)-1-(oxetan-2-ylmethyl)-1H-benzo[d]imidazole-6-carboxylic acid]: 3.64 nM.
Consider `O=C(O)c1ccc2nc(Cc3cc(F)c(-c4cccc(OCc5cnc(C(=O)NCC(F)F)cc5Cl)n4)cc3F)n(C[C@@H]3CCO3)c2c1` [Example 192, (S)-2-(4-(6-((4-chloro-6-((2,2-difluoroethyl)carbamoyl)pyridin-3-yl)methoxy)pyridin-2-yl)-2,5-difluorobenzyl)-1-(oxetan-2-ylmethyl)-1H-benzo[d]imidazole-6-carboxylic acid], for which the EC50 is 0.32 nM.

Source of the values: US20250312352A1, “GLP-1R MODULATING COMPOUNDS” (Gilead Sciences, Inc., priority 2021, published 2025).
